Test results from patent publication US20080200454A1, “CARBON-LINKED TETRAHYDRO-PYRAZOLO-PYRIDINE MODULATORS OF CATHEPSIN S” (priority 2007, published 2008).

These compounds were tested against Recombinant human cathepsin S (CatS) (Homo sapiens, UniProt P25774) (assay: Recombinant human cathepsin S (CatS) inhibition assay, fluorogenic substrate Z-Valine-Valine-Arginine-AMC). Conditions: not given.
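Also: Baculovirus-expressed CatS in pH 5.0 sodium acetate buffer with DTT and NaCl, fluorescence read each minute over 20 min, inhibition derived from rate slope.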

Recombinant human cathepsin S (CatS), sequence (P25774 115-331): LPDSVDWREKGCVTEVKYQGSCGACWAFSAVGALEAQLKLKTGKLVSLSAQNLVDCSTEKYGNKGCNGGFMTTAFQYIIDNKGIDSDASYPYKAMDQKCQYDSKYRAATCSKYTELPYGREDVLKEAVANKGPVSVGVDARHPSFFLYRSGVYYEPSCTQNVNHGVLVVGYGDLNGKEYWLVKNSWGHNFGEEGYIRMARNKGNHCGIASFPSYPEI

`CS(=O)(=O)c1ccccc1S(=O)(=O)NCCCc1cc(-c2nn(CCCN3CCC(N4CCCC4=O)CC3)c3c2CN(S(C)(=O)=O)CC3)ccc1Cl` [Example 100, N-{3-[2-Chloro-5-(5-methanesulfonyl-1-{3-[4-(2-oxo-pyrrolidin-1-yl)-piperidin-1-yl]-propyl}-4,5,6,7-tetrahydro-1H-pyrazolo[4,3-c]pyridin-3-yl)-phenyl]-propyl}-2-methanesulfonyl-benzenesulfonamide] and `CS(=O)(=O)c1cccc(S(=O)(=O)NCCCc2cc(-c3nn(CCCN4CCC(N5CCCC5=O)CC4)c4c3CN(S(C)(=O)=O)CC4)ccc2Cl)c1` [Example 99, N-{3-[2-Chloro-5-(5-methanesulfonyl-1-{3-[4-(2-oxo-pyrrolidin-1-yl)-piperidin-1-yl]-propyl}-4,5,6,7-tetrahydro-1H-pyrazolo[4,3-c]pyridin-3-yl)-phenyl]-propyl}-3-methanesulfonyl-benzenesulfonamide] are within 1.5-fold of each other in IC50: 2.5 µM for the first, 2.45 µM for the second.

Going from `NC(=O)C(=O)N1CCc2c(c(-c3ccc(Cl)c(C#Cc4ccc(CNCc5ccc(Cl)cc5)cc4)c3)nn2CCCN2CCOCC2)C1` [Example 150, 2-[3-(4-Chloro-3-{[4-({[(4-chlorophenyl)methyl]amino}methyl)phenyl]ethynyl}phenyl)-1-(3-morpholin-4-ylpropyl)-1,4,6,7-tetrahydro-5H-pyrazolo[4,3-c]pyridin-5-yl]-2-oxoacetamide] to `Cc1ccc(CNCc2ccc(C#Cc3cc(-c4nn(CCCN5CCOCC5)c5c4CN(S(C)(=O)=O)CC5)ccc3Cl)cc2)cc1` [Example 75, (4-{2-Chloro-5-[5-methanesulfonyl-1-(3-morpholin-4-yl-propyl)-4,5,6,7-tetrahydro-1H-pyrazolo[4,3-c]pyridin-3-yl]-phenylethynyl]-benzyl)-(4-methyl-benzyl)-amine], the IC50 rises from 0.08 µM to 0.35 µM (4.4-fold).

Compared with `CC(C)(C)OC(=O)N1CCC(C2CCN(C[C@H](O)Cn3nc(-c4ccc(Cl)c(C#Cc5ccc(Cl)cc5)c4)c4c3CCN(S(C)(=O)=O)C4)CC2)CC1` [Example 230, 1,1-Dimethylethyl 1′-{(2S)-3-[3-{4-chloro-3-[(4-chlorophenyl)ethynyl]phenyl}-5-(methylsulfonyl)-4,5,6,7-tetrahydro-1H-pyrazolo[4,3-c]pyridin-1-yl]-2-hydroxypropyl}-4,4′-bipiperidine-1-carboxylate], `CCN(CC)CC#Cc1cc(-c2nn(C[C@@H](O)CN3CCC(C4CCN(C(=O)OC(C)(C)C)CC4)CC3)c3c2CN(S(C)(=O)=O)CC3)ccc1Cl` [Example 236, 1,1-Dimethylethyl 1′-{(2S)-3-[3-{4-chloro-3-[3-(diethylamino)prop-1-yn-1-yl]phenyl}-5-(methylsulfonyl)-4,5,6,7-tetrahydro-1H-pyrazolo[4,3-c]pyridin-1-yl]-2-hydroxypropyl}-4,4′-bipiperidine-1-carboxylate] is 710-fold higher in IC50: 0.01 µM for the first, 7.13 µM for the second. The first is the more potent here.

Same assay, conditions: CatS IC50

First: CS(=O)(=O)N1CCc2c(c(-c3ccc(Cl)c(C#Cc4cncc(CNCc5ccc(Cl)cc5)c4)c3)nn2CCCN2CCOCC2)C1 [Example 428, 1-[5-({2-Chloro-5-[5-(methylsulfonyl)-1-(3-morpholin-4-ylpropyl)-4,5,6,7-tetrahydro-1H-pyrazolo[4,3-c]pyridin-3-yl]phenyl}ethynyl)pyridin-3-yl]-N-[(4-chlorophenyl)methyl]methanamine]
Second: CS(=O)(=O)N1CCc2c(c(-c3ccc(Cl)c(C#Cc4cccc(CNCc5cccnc5)c4)c3)nn2CCCN2CCOCC2)C1 [Example 521, 1-[3-({2-Chloro-5-[5-(methylsulfonyl)-1-(3-morpholin-4-ylpropyl)-4,5,6,7-tetrahydro-1H-pyrazolo[4,3-c]pyridin-3-yl]phenyl}ethynyl)phenyl]-N-(pyridin-3-ylmethyl)methanamine]
The IC50 of the first is 10-fold higher: 3.75 µM for the first, 0.37 µM for the second. The second is the more potent here.

`CS(=O)(=O)N1CCc2c(c(-c3ccc(Cl)c(C#Cc4ccc5c(c4)CNCC5)c3)nn2CCCN2CCCCC2)C1` [Example 381, 7-({2-Chloro-5-[5-(methylsulfonyl)-1-(3-piperidin-1-ylpropyl)-4,5,6,7-tetrahydro-1H-pyrazolo[4,3-c]pyridin-3-yl]phenyl}ethynyl)-1,2,3,4-tetrahydroisoquinoline] and `CS(=O)(=O)N1CCc2c(c(-c3ccc(Cl)c(C#Cc4ccc(Cl)c(CN5CCOCC5)c4)c3)nn2CCCN2CCCCC2)C1` [Example 604, 3-(4-Chloro-3-{[4-chloro-3-(morpholin-4-ylmethyl)phenyl]ethynyl}phenyl)-5-(methylsulfonyl)-1-(3-piperidin-1-ylpropyl)-4,5,6,7-tetrahydro-1H-pyrazolo[4,3-c]pyridine] are within 1.5-fold of each other in IC50: 0.1 µM for the first, 0.08 µM for the second.

`CS(=O)(=O)N1CCc2c(c(-c3ccc(Cl)c(C#Cc4cccc(CNCCCO)c4)c3)nn2CCCN2CCOCC2)C1` [Example 509, 3-({[3-({2-Chloro-5-[5-(methylsulfonyl)-1-(3-morpholin-4-ylpropyl)-4,5,6,7-tetrahydro-1H-pyrazolo[4,3-c]pyridin-3-yl]phenyl}ethynyl)phenyl]methyl}amino)propan-1-ol] and `CC(C)CNCc1cccc(C#Cc2cc(-c3nn(CCCN4CCOCC4)c4c3CN(S(C)(=O)=O)CC4)ccc2Cl)c1` [Example 520, N-{[3-({2-Chloro-5-[5-(methylsulfonyl)-1-(3-morpholin-4-ylpropyl)-4,5,6,7-tetrahydro-1H-pyrazolo[4,3-c]pyridin-3-yl]phenyl}ethynyl)phenyl]methyl}-2-methylpropan-1-amine] are within 1.5-fold of each other in IC50: 0.5 µM for the first, 0.44 µM for the second.

`CS(=O)(=O)N1CCc2c(c(-c3ccc(Cl)c(C#Cc4ccc(F)c(CNCc5ccccc5)c4)c3)nn2CCCN2CCOCC2)C1` [Example 290, 1-[5-({2-Chloro-5-[5-(methylsulfonyl)-1-(3-morpholin-4-ylpropyl)-4,5,6,7-tetrahydro-1H-pyrazolo[4,3-c]pyridin-3-yl]phenyl}ethynyl)-2-fluorophenyl]-N-(phenylmethyl)methanamine] and `C=CCN1CCc2cc(C#Cc3cc(-c4nn(CCCN5CCOCC5)c5c4CN(S(C)(=O)=O)CC5)ccc3Cl)ccc2C1` [Example 527, 6-({2-Chloro-5-[5-(methylsulfonyl)-1-(3-morpholin-4-ylpropyl)-4,5,6,7-tetrahydro-1H-pyrazolo[4,3-c]pyridin-3-yl]phenyl}ethynyl)-2-prop-2-en-1-yl-1,2,3,4-tetrahydroisoquinoline] are within 1.5-fold of each other in IC50: 0.21 µM for the first, 0.3 µM for the second.

Compared with `CS(=O)(=O)N1CCc2c(c(-c3ccc(Cl)c(C#Cc4ccc(CNCC(F)(F)F)cc4)c3)nn2CCCN2CCC(N3CCCC3=O)CC2)C1` [Example 348, 1-(1-{3-[3-{4-Chloro-3-[(4-{[(2,2,2-trifluoroethyl)amino]methyl}phenyl)ethynyl]phenyl}-5-(methylsulfonyl)-4,5,6,7-tetrahydro-1H-pyrazolo[4,3-c]pyridin-1-yl]propyl}piperidin-4-yl)pyrrolidin-2-one], `CN1CCN(C(=O)[C@@H]2Cc3ccc(C#Cc4cc(-c5nn(CCCN6CCOCC6)c6c5CN(S(C)(=O)=O)CC6)ccc4Cl)cc3CN2)CC1` [Example 485, (3S)-7-({2-Chloro-5-[5-(methylsulfonyl)-1-(3-morpholin-4-ylpropyl)-4,5,6,7-tetrahydro-1H-pyrazolo[4,3-c]pyridin-3-yl]phenyl}ethynyl)-3-[(4-methylpiperazin-1-yl)carbonyl]-1,2,3,4-tetrahydroisoquinoline] is 2-fold lower in IC50: 0.1 µM for the first, 0.05 µM for the second.

Same assay, conditions: read-out: CatS IC50; Table 4; average of results obtained

Compound “(2S)-1-(4,4′-Bipiperidin-1-yl)-3-[3-{4-chloro-3-[3-(diethylamino)prop-1-yn-1-yl]phenyl}-5-(methylsulfonyl)-4,5,6,7-tetrahydro-1H-pyrazolo[4,3-c]pyridin-1-yl]propan-2-ol [Example 471]” has an IC50 of 7.42 µM.
